In publication PMC6160999, “Pharmacokinetics, Tissue Distribution and Excretion of a Novel Diuretic (PU-48) in Rats” (Pharmaceutics, 2018):

Test: Stability of PU-48 in rat plasma QC samples (HPLC)
Type: in vitro ADME
Conditions: for Stability: Measured Concentration: n=3
Description: HPLC Analysis and Method Validation
The concentration of PU -48 prototype in biological sample (feces and plasma protein binding analysis) was determined using a validated high -performance liquid chromatographic (HPLC) method in our preliminary experiment. Briefly, the analysis was performed using a HPLC consistent of model 510 pump with a model 2487 ultraviolet detector, a model Rheodyne 7725 injector, and a column oven. The analytical conditions were as follows: the detection wavelength: 293 nm; analytical column: a reversed-phase Acclaim C18 (4.6 mm × 250 mm, 5.0 µm, Dionex); column temperature: 25 C; mobile phase: acetonitrile: distilled water at a ratio of 60: 40 ( v/v); flow rate: 1 mL/min. In this study, the methods for the feces samples, were evaluated for specificity, linearity, precision, accuracy and […]
The intra- and inter-day precision and accuracy were determined by analyzing five replicates of QC samples (low, medium and high concentrations of 0.005, 0.08 and 1.6 µg/mL) at each QC level on the same day and on five consecutive days. The precision was expressed as the relative standard deviation (RSD) between the measured values and the targeted values. The pass c riterion was set at <15%. The accuracy was expressed as relative error (RE) between the measured values and the targeted values, which was set at < ± 15% (for the low concentration, the acceptance criterion was <20%). The stability of PU -48 in rat plasma w as determined by analyzing QC samples stored in different conditions, including room temperature and light irradiation for 24 h, post -preparation (the extracted samples were stored at 4°C for 96 h), three cycles of freeze and thaw (freezing at -20°C for 24 h and thawing at room temperature) and long-term stored at −20°C for 3 months. All of the QC samples for stability assessment were analyzed in triplicate.

[1] = extracted rat plasma samples, post−preparative (at 4 °C for 96 h), actual 0.005 µg/mL
[2] = extracted rat plasma samples, post−preparative (at 4 °C for 96 h), actual 0.08 µg/mL
[3] = extracted rat plasma samples, post−preparative (at 4 °C for 96 h), actual 1.6 µg/mL
[4] = rat plasma, freeze−thawing three cycles (at −20 °C), actual 0.005 µg/mL
[5] = rat plasma, freeze−thawing three cycles (at −20 °C), actual 0.08 µg/mL
[6] = rat plasma, freeze−thawing three cycles (at −20 °C), actual 1.6 µg/mL
[7] = rat plasma, freezing storage (at −20 °C for 3 months), actual 0.005 µg/mL
[8] = rat plasma, freezing storage (at −20 °C for 3 months), actual 0.08 µg/mL
[9] = rat plasma, light and room temperature for 24 h, actual 0.005 µg/mL
[10] = rat plasma, light and room temperature for 24 h, actual 0.08 µg/mL
[11] = rat plasma, light and room temperature for 24 h, actual 1.6 µg/mL

Stability: Accuracy (RE) [1]: −8.43%
Stability: Measured Concentration [1]: 0.0046 ± 0.0006 µg/mL
Stability: Accuracy (RE) [2]: −10.23%
Stability: Measured Concentration [2]: 0.0718 ± 0.0019 µg/mL
Stability: Accuracy (RE) [3]: −3.08%
Stability: Measured Concentration [3]: 1.5507 ± 0.0904 µg/mL
Stability: Accuracy (RE) [4]: −7.33%
Stability: Measured Concentration [4]: 0.0046 ± 0.0004 µg/mL
Stability: Accuracy (RE) [5]: −3.43%
Stability: Measured Concentration [5]: 0.0773 ± 0.0055 µg/mL
Stability: Accuracy (RE) [6]: −8.49%
Stability: Measured Concentration [6]: 1.4641 ± 0.0840 µg/mL
Stability: Accuracy (RE) [7]: −9.37%
Stability: Measured Concentration [7]: 0.0045 ± 0.0002 µg/mL
Stability: Accuracy (RE) [8]: −6.48%
Stability: Measured Concentration [8]: 0.0748 ± 0.0058 µg/mL
Stability: Accuracy (RE) (rat plasma, freezing storage (at −20 °C for 3 months), actual 1.6 µg/mL): −10.15%
Stability: Accuracy (RE) [9]: −9.278%
Stability: Measured Concentration [9]: 0.0045 ± 0.0003 µg/mL
Stability: Accuracy (RE) [10]: 9.07%
Stability: Measured Concentration [10]: 0.0873 ± 0.0011 µg/mL
Stability: Accuracy (RE) [11]: −10.63%
Stability: Measured Concentration [11]: 1.4299 ± 0.0296 µg/mL
Structure (SMILES): COC(=O)c1sc2nc3ccc(OC)cc3cc2c1N [PU-48, Methyl 3-amino-6-methoxythieno [2,3-b] quinoline-2-carboxylate]
